In patent US4268678A, “4-(Arylaliphatic)isoxazoles” (Sterling Drug Inc., priority 1979, dated 1981) one finds MIC data, which are given here for eight compounds.

The structures appear in SMILES notation. Values after ≈ are worked out from the molar mass of the structure shown.

The test system of the test is herpes simplex virus type 2. Description: in vitro antiviral testing against herpes simplex virus type 2 (MIC by standard serial dilution). The class given is cell-based. The following applies: Human alphaherpesvirus 2, herpes simplex virus type 2 (herpes 2), read-out: minimal inhibitory concentration (MIC). The method, then:
They are useful in combatting viruses present on inanimate surfaces as well as viral infections in animal organisms. […] The MIC values were determined by standard serial dilution procedures.
Turning to `CCc1noc(CC)c1CCCCCCOc1ccc(OC)cc1Cl` [Example 1, 4-[6-(2-Chloro-4-methoxyphenoxy)hexyl]-3,5-diethylisoxazole], the MIC amounted to 6 µg/mL (≈ 16.4 µM).
The value for `CCc1noc(CC)c1Cc1ccc(C)cc1` [Example 2, 3,5-Diethyl-4-[(4-methylphenyl)methyl]isoxazole] was 1.5 µg/mL (≈ 6.54 µM).
The value for `CCc1noc(CC)c1Cc1ccc(OC)cc1` [Example 3, 3,5-Diethyl-4-[(4-methoxyphenyl)methyl]isoxazole] was 25 µg/mL (≈ 102 µM).
The value for `CCc1noc(CC)c1Cc1ccc(OC)cc1Cl` [Example 4, 4-[(2-Chloro-4-methoxyphenyl)methyl]-3,5-diethylisoxazole] was 12 µg/mL (≈ 42.9 µM); that for `CCc1noc(CC)c1CCCCCCOc1ccc(OC)cc1[N+](=O)[O-]` [Example 5, 3,5-Diethyl-4-[6-(4-methoxy-2-nitrophenoxy)hexyl]isoxazole] was 3 µg/mL (≈ 7.97 µM).
With `CCc1noc(CC)c1CCCCCCOc1ccc(Br)cc1` [Example 6, 4-[6-(4-Bromophenoxy)hexyl]-3,5-diethylisoxazole], the MIC is 12 µg/mL (≈ 31.6 µM).
The value for `CCc1noc(CC)c1CCCCOc1ccc(OC)cc1Cl` [Example 7, 4-[4-(2-Chloro-4-methoxyphenoxy)butyl]-3,5-diethylisoxazole] was 6 µg/mL (≈ 17.8 µM); that for `CCc1noc(CC)c1CCCCCCCOc1ccc(OC)cc1Cl` [Example 8, 4-[7-(2-Chloro-4-methoxyphenoxy)heptyl]-3,5-diethylisoxazole] was over 25 µg/mL.
